From patent US20210009542A1 (Calico Life Sciences LLC, priority 2018, published 2021)
Read-outs that look alike come from different tables or passages of the source.

Legend:
[1] = target: T1, His tagged PTPN2 (TC45) protein (Homo sapiens, UniProt P17706); test: Mobility shift assay (MSA) for potency of PTPN2 inhibitors; type: biochemical
T1 construct: made in house
T1 sequence (P17706 with tags, fused parts or gaps isoform P17706-2): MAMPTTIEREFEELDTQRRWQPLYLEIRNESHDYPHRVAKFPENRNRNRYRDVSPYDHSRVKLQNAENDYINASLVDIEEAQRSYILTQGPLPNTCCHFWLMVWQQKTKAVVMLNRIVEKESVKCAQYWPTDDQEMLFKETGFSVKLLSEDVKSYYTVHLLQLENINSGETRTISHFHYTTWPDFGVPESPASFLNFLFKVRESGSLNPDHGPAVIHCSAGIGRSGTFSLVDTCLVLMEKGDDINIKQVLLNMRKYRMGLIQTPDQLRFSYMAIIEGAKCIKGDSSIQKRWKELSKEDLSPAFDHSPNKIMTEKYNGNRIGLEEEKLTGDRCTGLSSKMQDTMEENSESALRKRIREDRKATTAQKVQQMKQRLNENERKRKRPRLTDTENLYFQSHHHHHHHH
Outline: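 IC50 values were derived from % inhibition of substrate conversion, measured by microfluidic mobility shift (ex 488/em 530) after quenching. The fluorescent phosphotyrosine insulin-receptor peptide ([…]) reacted for 10 min at room temperature with 0.5 nM His-tagged TC45 PTPN2 that had been preincubated 10 min with compound (12 points, 1:3). Buffer was HEPES pH 7.5 with EGTA, EDTA, Tween 20 and DTT.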

[2] = target: T2, His tagged full-length PTP1B protein (Homo sapiens, UniProt P18031); test: Mobility shift assay (MSA) for potency of PTP1B inhibitors; type: biochemical
T2 construct: made in house
T2 sequence (P18031 with tags, fused parts or gaps): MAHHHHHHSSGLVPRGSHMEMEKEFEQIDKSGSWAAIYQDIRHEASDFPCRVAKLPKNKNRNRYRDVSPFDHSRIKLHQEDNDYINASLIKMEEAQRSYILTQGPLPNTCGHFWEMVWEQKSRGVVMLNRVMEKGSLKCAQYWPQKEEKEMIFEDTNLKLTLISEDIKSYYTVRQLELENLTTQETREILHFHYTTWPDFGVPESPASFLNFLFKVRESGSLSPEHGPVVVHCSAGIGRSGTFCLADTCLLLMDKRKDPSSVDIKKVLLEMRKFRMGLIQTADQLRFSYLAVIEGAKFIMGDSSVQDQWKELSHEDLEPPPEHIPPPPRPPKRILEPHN
Method: The enzymatic assay used to determine activity is a mobility shift assay using a LabChip EZ Reader by Caliper Life Sciences. The enzymatic reaction was carried out in assay buffer (50 mM HEPES pH 7.5, 1 mM EGTA, 10 mM EDTA, 0.01% Tween® 20, and 2 mM DTT). […] The enzyme (at 0.5 nM) was incubated with compound for 10 minutes at room temperature. […] The % inhibition was then used to calculate the IC50 values.

[3] = test system: B16F10 mouse melanoma cells; test: B16F10 IFNγ-induced cellular growth inhibition assay; type: cell-based; conditions: Mus musculus, B16-F10
Outline: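 Live-cell imaging of confluence every 6 h over 5 days at 37 °C tracked growth of mouse B16F10 melanoma cells seeded overnight at 500/well. Semi-log compound series (final 100–0.001 μM, 0.1% DMSO) ran in both arms, ±IFNγ at 0.5 ng/mL final; inhibition taken relative to DMSO plus IFNγ when IFNγ-free DMSO wells passed 95% confluence.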

[4] = +0.5 ng/mL IFNγ, 33 μM compound, relative to DMSO control, read-out: % B16F10 growth inhibition (+0.5 ng/mL IFNγ) @ 33 μM
[5] = no IFNγ, 33 μM compound, read-out: % B16F10 growth inhibition (no IFNγ) @ 33 μM

SMILES | IC50 [2] | IC50 ([1]; read-out: PTPN2 MSA IC50) | inhibition at 33 µM [3, 4] | inhibition at 33 µM [3, 5] | further results
CC(O)COc1ccc2cc(O)c(N3CC(=O)NS3(=O)=O)c(F)c2c1 (stereo not shown) [Compound 135, 5-[1-fluoro-3-hydroxy-7-(2-hydroxypropoxy)naphthalen-2-yl]-1λ^6,2,5-thiadiazolidine-1,1,3-trione] | 10 to 100 nM | 1 to 10 nM |  |  | 
CC(COc1ccc2cc(O)c(N3CC(=O)NS3(=O)=O)c(F)c2c1)C1CC1 (stereo not shown) [Compound 171, 5-[7-(2-cyclopropylpropoxy)-1-fluoro-3-hydroxynaphthalen-2-yl]-1λ^6,2,5-thiadiazolidine-1,1,3-trione] | 10 to 100 nM | < 1 nM |  |  | 
CS(=O)(=O)N1CCC(COc2ccc3cc(O)c(N4CC(=O)NS4(=O)=O)c(F)c3c2)C1 (stereo not shown) [Compound 173, 5-(1-fluoro-3-hydroxy-7-{[1-(methanesulfonyl)pyrrolidin-3-yl]methoxy}naphthalen-2-yl)-1,2,5-thiadiazolidine-1,1,3-trione] | 10 to 100 nM | < 1 nM |  |  | 
O=C1CN(c2c(O)cc3ccc(C(CO)CCl)cc3c2F)S(=O)(=O)N1 (stereo not shown) [Compound 221, 5-[7-(1-chloro-3-hydroxypropan-2-yl)-1-fluoro-3-hydroxynaphthalen-2-yl]-1λ^6,2,5-thiadiazolidine-1,1,3-trione] | > 100 nM | 10 to 100 nM |  |  | 
O=C1CN(c2c(O)cc3ccc(OCC(F)F)cc3c2F)S(=O)(=O)N1 [Compound 302, 5-[7-(2,2-difluoroethoxy)-1-fluoro-3-hydroxynaphthalen-2-yl]-1λ^6,2,5-thiadiazolidine-1,1,3-trione] |  | 1 to 10 nM | 60 to 90% | < 25% | 
O=C1CN(c2c(O)cc3ccc(-c4cnn(S(=O)(=O)C5CC5)c4)cc3c2F)S(=O)(=O)N1 [Compound 303, 5-{7-[1-(cyclopropanesulfonyl)-1H-pyrazol-4-yl]-1-fluoro-3-hydroxynaphthalen-2-yl}-1λ^6,2,5-thiadiazolidine-1,1,3-trione] |  | < 1 nM | 60 to 90% | < 25% | 
CS(=O)(=O)N1CC[C@@H](Nc2ccc3cc(O)c(N4CC(=O)NS4(=O)=O)c(F)c3c2)C1 [Compound 304, 5-(1-fluoro-3-hydroxy-7-{[(3R)-1-(methanesulfonyl)pyrrolidin-3-yl]amino}naphthalen-2-yl)-1λ^6,2,5-thiadiazolidine-1,1,3-trione] |  | 1 to 10 nM | > 90% | < 25% | 
CS(=O)(=O)N1CCC(Nc2ccc3cc(O)c(N4CC(=O)NS4(=O)=O)c(F)c3c2)CC1 [Compound 305, 5-(1-fluoro-3-hydroxy-7-{[1-(methanesulfonyl)piperidin-4-yl]amino}naphthalen-2-yl)-1λ^6,2,5-thiadiazolidine-1,1,3-trione] |  | 10 to 100 nM | 60 to 90% | < 25% | 
NCCOc1ccc2cc(O)c(N3CC(=O)NS3(=O)=O)c(F)c2c1 [Compound 309, 5-[7-(2-aminoethoxy)-1-fluoro-3-hydroxynaphthalen-2-yl]-1λ^6,2,5-thiadiazolidine-1,1,3-trione] |  | 1 to 10 nM | 60 to 90% | < 25% | 
Cc1nn(C)cc1S(=O)(=O)N1CC=C(c2ccc3cc(O)c(N4CC(=O)NS4(=O)=O)c(F)c3c2)C1 [Compound 310, 5-{7-[1-(1,3-dimethyl-1H-pyrazole-4-sulfonyl)-2,5-dihydro-1H-pyrrol-3-yl]-1-fluoro-3-hydroxynaphthalen-2-yl}-1λ^6,2,5-thiadiazolidine-1,1,3-trione] |  | < 1 nM | > 90% | < 25% | 
CCS(=O)(=O)NCCOc1ccc2cc(O)c(N3CC(=O)NS3(=O)=O)c(F)c2c1 [Compound 311, N-(2-{[8-fluoro-6-hydroxy-7-(1,1,4-trioxo-1λ^6,2,5-thiadiazolidin-2-yl)naphthalen-2-yl]oxy}ethyl)ethanesulfonamide] |  | < 1 nM | 60 to 90% | < 25% | 
CC(C)CCS(=O)(=O)N1CC=C(c2ccc3cc(O)c(N4CC(=O)NS4(=O)=O)c(F)c3c2)C1 [Compound 313, 5-{1-fluoro-3-hydroxy-7-[1-(3-methylbutane-1-sulfonyl)-2,5-dihydro-1H-pyrrol-3-yl]naphthalen-2-yl}-1λ^6,2,5-thiadiazolidine-1,1,3-trione] |  | < 1 nM | 60 to 90% | < 25% | 
COc1ccc2cc(O)c(N3CC(=O)NS3(=O)=O)cc2c1 [Compound X, reference compound] |  |  |  |  | inhibition at 33 µM ([3]; 33 μM, in the presence of IFNγ, read-out: growth inhibition in the presence of IFNγ compared to DMSO controls): < 25%; inhibition at 33 µM ([3]; Table 4, +0.5 ng/mL IFNγ, 33 μM, read-out: % B16F10 growth inhibition (+0.5 ng/mL IFNγ) @ 33 μM): < 25%; inhibition at 33 µM ([3]; Table 4, no IFNγ, 33 μM, read-out: % B16F10 growth inhibition (no IFNγ) @ 33 μM): < 25%; IC50 ([1]; Table 4, read-out: PTPN2 MSA IC50): 10 to 100 nM; IC50 ([1]; read-out: PTPN2 IC50): 69 nM

Continued, in another order:

IC50 [2] | SMILES | IC50 ([1]; read-out: PTPN2 MSA IC50) | inhibition at 33 µM [3, 4] | inhibition at 33 µM [3, 5] | further results
10 to 100 nM | O=C1CN(c2c(O)cc3ccc([C@@H]4CCNC4)cc3c2F)S(=O)(=O)N1 (single isomer, unassigned) [Compound 232] | 1 to 10 nM |  |  | 
10 to 100 nM | O=C1CN(c2c(O)cc3ccc([C@H]4CCNC4)cc3c2F)S(=O)(=O)N1 (single isomer, unassigned) [Compound 233] | 1 to 10 nM |  |  | 
10 to 100 nM | O=C1CN(c2c(O)cc3ccc(C4CCCN(S(=O)(=O)C5CC5)C4)cc3c2F)S(=O)(=O)N1 (stereo not shown) [Compound 186, 5-{7-[1-(cyclopropanesulfonyl)piperidin-3-yl]-1-fluoro-3-hydroxynaphthalen-2-yl}-1λ^6,2,5-thiadiazolidine-1,1,3-trione] | 1 to 10 nM |  |  | 
10 to 100 nM | O=C1CN(c2c(O)cc3ccc(C4CCCN4C(=O)C4CC4)cc3c2F)S(=O)(=O)N1 (stereo not shown) [Compound 187, 5-{7-[1-(cyclopropanecarbonyl)pyrrolidin-2-yl]-1-fluoro-3-hydroxynaphthalen-2-yl}-1λ^6,2,5-thiadiazolidine-1,1,3-trione] | 1 to 10 nM |  |  | 
10 to 100 nM | O=C1CN(c2c(O)cc3ccc(C4CCCN4S(=O)(=O)C4CC4)cc3c2F)S(=O)(=O)N1 (stereo not shown) [Compound 189, 5-{7-[1-(cyclopropanesulfonyl)pyrrolidin-2-yl]-1-fluoro-3-hydroxynaphthalen-2-yl}-1λ^6,2,5-thiadiazolidine-1,1,3-trione] | 1 to 10 nM |  |  | 
> 100 nM | CC(C)(C)CC1CCN(c2ccc3cc(O)c(N4CC(=O)NS4(=O)=O)c(F)c3c2)C1 (stereo not shown) [Compound 220, 5-{7-[3-(2,2-dimethylpropyl)pyrrolidin-1-yl]-1-fluoro-3-hydroxynaphthalen-2-yl}-1λ^6,2,5-thiadiazolidine-1,1,3-trione] | 10 to 100 nM |  |  | 
10 to 100 nM | O=C1CN(c2c(O)cc3ccc(C4CCN(CC5CC5)C4)cc3c2F)S(=O)(=O)N1 (stereo not shown) [Compound 222, 5-{7-[1-(cyclopropylmethyl)pyrrolidin-3-yl]-1-fluoro-3-hydroxynaphthalen-2-yl}-1λ^6,2,5-thiadiazolidine-1,1,3-trione] | > 100 nM |  |  | 
10 to 100 nM | O=C1CN(c2c(O)cc3ccc(C4CCCN4)cc3c2F)S(=O)(=O)N1 (stereo not shown) [Compound 258, 5-[1-fluoro-3-hydroxy-7-(pyrrolidin-2-yl)naphthalen-2-yl]-1λ^6,2,5-thiadiazolidine-1,1,3-trione] | 1 to 10 nM |  |  | 
10 to 100 nM | O=C1CN(c2c(O)cc3ccc(CC4CCNC4)cc3c2F)S(=O)(=O)N1 (stereo not shown) [Compound 262, 5-{1-fluoro-3-hydroxy-7-[(pyrrolidin-3-yl)methyl]naphthalen-2-yl}-1λ^6,2,5-thiadiazolidine-1,1,3-trione] | 1 to 10 nM |  |  | 
